The record followed here is patent US20100227853A1, “INHIBITORS OF CYCLIC AMP PHOSPHODIESTERASES” (Trustees of Boston College, priority 2008, published 2010).

The target in test [1] is T1, PDE2A (Mus musculus, UniProt Q922S4).
T1 construct: targets used in the assays are full-length proteins (as opposed to simply the catalytic domain); expressed in transfected cells; host or cells: Schizosaccharomyces pombe, PDE gene integrated in place of cgs2 (strains LWP371, LWP364)
T1 sequence (Q922S4 1-939): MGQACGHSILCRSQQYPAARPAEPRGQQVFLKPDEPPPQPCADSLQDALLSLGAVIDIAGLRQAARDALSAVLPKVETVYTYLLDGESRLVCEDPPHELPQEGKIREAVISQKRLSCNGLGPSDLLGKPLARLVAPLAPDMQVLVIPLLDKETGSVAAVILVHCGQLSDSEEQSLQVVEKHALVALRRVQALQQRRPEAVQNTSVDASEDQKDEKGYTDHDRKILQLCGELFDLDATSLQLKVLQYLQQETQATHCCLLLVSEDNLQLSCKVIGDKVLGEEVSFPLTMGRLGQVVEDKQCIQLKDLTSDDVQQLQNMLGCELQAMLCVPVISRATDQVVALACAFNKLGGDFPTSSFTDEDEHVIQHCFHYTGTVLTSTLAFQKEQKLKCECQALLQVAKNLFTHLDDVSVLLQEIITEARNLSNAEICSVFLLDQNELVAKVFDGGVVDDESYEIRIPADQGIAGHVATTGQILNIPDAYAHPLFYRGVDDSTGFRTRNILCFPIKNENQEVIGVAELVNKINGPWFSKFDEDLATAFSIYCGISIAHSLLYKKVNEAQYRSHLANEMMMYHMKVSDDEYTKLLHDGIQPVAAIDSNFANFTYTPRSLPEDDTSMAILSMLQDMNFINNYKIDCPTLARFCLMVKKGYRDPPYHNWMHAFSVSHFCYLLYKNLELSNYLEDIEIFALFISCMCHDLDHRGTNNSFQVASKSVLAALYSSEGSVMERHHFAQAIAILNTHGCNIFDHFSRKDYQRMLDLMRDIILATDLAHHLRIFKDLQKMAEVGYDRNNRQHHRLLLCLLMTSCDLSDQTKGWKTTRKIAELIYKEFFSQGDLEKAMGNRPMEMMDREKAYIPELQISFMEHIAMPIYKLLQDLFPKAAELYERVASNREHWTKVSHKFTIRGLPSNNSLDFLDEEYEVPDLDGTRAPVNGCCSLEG
The experiment in a line: cAMP levels in yeast strain expressing PDE2A. The test is classed as cell-based, murine. Conditions: 20 μM EHNA as compared to 200 μM. As to the method:
(§1) Values represent the average and SD of two or three independent experiments. […] The strains used are as in FIG. 5A, together with strain CHP1141 (PDE8A). Values represent the average and SD of two or three independent experiments.
(§2) β-galactosidase assays and characterization of 5FOA-sensitivity were carried out as previously described^10. cAMP assays were performed on exponential phase cells grown in EMM complete medium (3% glucose), using the Assay Designs cAMP EIA kit, according to manufacturer's instructions (Assay Designs, Ann arbor, Mich.).
(§3) Thus, PDE inhibition can be indirectly quantitated by measuring the effect of a compound on cAMP levels in target yeast strains.
(Changes in cAMP serve as a functional read-out for many G protein-coupled receptors.)

The target in test [2] is T1, PDE2A. The experiment in a line: fbp1-lacZ β-galactosidase reporter assay, PDE2A strain. The test is classed as cell-based, murine. Conditions: strain LWP367 (PDE2A). On the procedure:
as §2
(§4) The effect of known PDE inhibitors on the expression of the fbp1-lacZ fusion in murine PDE-expressing strains was tested. […] For Table 4 β-galactosidase activity was determined from 3 to 4 independent exponential phase cultures. The average±SD represents specific activity per milligram of soluble protein.
(A reporter such as luciferase makes a cellular process visible.)

Test [3] concerns PDE2A, PDE4A, PDE4B, Cgs2. Put plainly: Parallel high throughput 5FOA growth screens of bioactive libraries. The test is classed as cell-based, murine PDEs; yeast Cgs2. Conditions: 3,120 bioactive compounds, average 20 μM. As to the method: High throughput drug screens were carried out at the Broad Institute's Chemical Biology Program screening facility (Broad Institute, Cambridge, Mass.). Depending upon the strain, cultures were pregrown to exponential phase in EMM complete medium containing from 0.5 to 2.5 mM cAMP to repress fbp1-ura4 transcription. […] Starting cell concentrations ranged from 0.5×10^5 to 4×10^5 cells/ml depending on the screening strain. […] Other positive control dishes contained 5 mM cAMP in the 5FOA medium. Cultures were grown for 48 hours at 30° C., sealed in an airtight container with moist paper towels to prevent evaporation. Optical densities (OD600) of cultures were measured using a microplate reader. Bioinformatic analysis of the results to determine composite Z scores was performed as previously described^30, 31.

The target of test [4] is T2, PDE8A (Mus musculus, UniProt O88502).
T2 construct: targets used in the assays are full-length proteins (as opposed to simply the catalytic domain); expressed in transfected cells; host or cells: Schizosaccharomyces pombe, PDE gene integrated in place of cgs2 (strains CHP1141, DDP13)
T2 sequence (O88502 1-823): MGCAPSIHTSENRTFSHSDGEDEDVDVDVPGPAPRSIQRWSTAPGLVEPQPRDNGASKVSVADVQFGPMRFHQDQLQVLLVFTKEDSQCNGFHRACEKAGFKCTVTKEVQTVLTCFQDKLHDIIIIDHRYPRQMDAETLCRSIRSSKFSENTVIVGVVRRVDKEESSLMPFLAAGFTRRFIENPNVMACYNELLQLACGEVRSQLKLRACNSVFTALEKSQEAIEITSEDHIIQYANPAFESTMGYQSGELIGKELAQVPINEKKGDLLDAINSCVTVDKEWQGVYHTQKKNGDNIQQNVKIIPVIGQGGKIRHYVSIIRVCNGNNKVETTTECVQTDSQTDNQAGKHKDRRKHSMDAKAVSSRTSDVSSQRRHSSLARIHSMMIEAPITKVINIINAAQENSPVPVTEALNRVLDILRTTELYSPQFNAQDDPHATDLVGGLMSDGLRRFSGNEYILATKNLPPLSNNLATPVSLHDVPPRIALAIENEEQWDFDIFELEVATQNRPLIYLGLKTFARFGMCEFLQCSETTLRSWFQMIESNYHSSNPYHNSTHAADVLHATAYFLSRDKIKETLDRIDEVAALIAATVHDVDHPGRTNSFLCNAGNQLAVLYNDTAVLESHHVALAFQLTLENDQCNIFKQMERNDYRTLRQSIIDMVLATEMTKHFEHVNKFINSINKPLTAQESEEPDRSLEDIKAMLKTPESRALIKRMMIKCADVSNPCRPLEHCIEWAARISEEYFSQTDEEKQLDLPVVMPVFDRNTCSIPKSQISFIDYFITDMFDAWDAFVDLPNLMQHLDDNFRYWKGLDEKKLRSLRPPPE
Put plainly: cAMP levels in yeast strain expressing PDE8A. The test is classed as cell-based, murine. Conditions: rolipram treatment. On the procedure: as §1, §2, §3

Another test deals with T3, Cgs2 (Schizosaccharomyces pombe, UniProt P36599).
T3 construct: expressing either the wild-type S. pombe Cgs2^+ PDE; endogenous in cells; host or cells: Schizosaccharomyces pombe strain CHP861
Put plainly: fbp1-lacZ β-galactosidase reporter assay, Cgs2 strain. The test is classed as cell-based, S. pombe. The note with it: strain CHP861 (Cgs2). On the procedure: as §2, §4

Test [5] concerns the target T2, PDE8A. Put plainly: fbp1-lacZ β-galactosidase reporter assay, PDE8A strain. The test is classed as cell-based, murine. The note with it: strain DDP13 (PDE8A). On the procedure:
as §2, §4

A further test concerns Cgs2-2. The experiment in a line: fbp1-lacZ β-galactosidase reporter assay, Cgs2-2 strain. Format: cell-based, S. pombe. Conditions: strain LWP98 (Cgs2-2). On the procedure:
as §2, §4

A further test concerns U937 cells. The experiment in a line: TNF alpha release by LPS-treated U937 cells. Format: cell-based.
Test [6] concerns the target T4, PDE7B (Homo sapiens, UniProt Q9NP56). Put plainly: in vitro enzyme assay, PDE7B catalytic domain from E. coli, hydrolysis of cAMP to AMP. The test is classed as biochemical. The arrangement: The PDE7B catalytic domain was expressed in and purified from E. coli; made in house; host or cells: E. coli. Conditions: AC200 = [Compound] that doubles PDE activity; read-out: IC50 (or AC200), PDE7B. As to the method:
The PDE7B catalytic domain was expressed in and purified from E. coli and tested for activity in an in vitro enzyme assay, measuring the hydrolysis of cAMP to AMP. Four dilutions of the enzyme preparation were tested at various compound concentrations (X axis). The percent of cAMP hydrolyzed is plotted on the Y axis.
Target sequence in this assay (Q9NP56 97-420 limits assumed, species assumed): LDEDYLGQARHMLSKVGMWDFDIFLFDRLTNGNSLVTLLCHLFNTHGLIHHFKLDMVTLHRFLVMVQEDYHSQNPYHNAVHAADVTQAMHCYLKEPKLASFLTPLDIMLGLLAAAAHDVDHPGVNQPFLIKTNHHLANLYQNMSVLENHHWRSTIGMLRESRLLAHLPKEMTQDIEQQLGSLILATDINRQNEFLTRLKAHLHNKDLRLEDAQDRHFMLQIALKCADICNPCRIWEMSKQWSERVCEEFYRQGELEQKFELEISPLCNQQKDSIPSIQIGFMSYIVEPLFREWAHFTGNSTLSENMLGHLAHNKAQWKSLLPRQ

The target in test [7] is T4, PDE7B. Put plainly: 5FOA growth assay in fission yeast strain expressing PDE7B. The arrangement: targets used in the assays are full-length proteins (as opposed to simply the catalytic domain); expressed in transfected cells; host or cells: Schizosaccharomyces pombe. Format: cell-based. The note with it: OD600 0.6; read-out: ED50 for 5FOA growth assays, PDE7B. On the procedure: PDE inhibition allows growth in 5FOA medium as measured by optical density after 48 hours incubation at 30° C. Compound BC12 and six structural analogs were tested for growth stimulation.
Cells were pregrown in EMM medium [MP Biomedicals (Solon, Ohio), 3% glucose, filter-sterilized to avoid carmelization, which would introduce variability into the optical density of the medium] containing from 0 mM to 2.5 mM cAMP (or either 0.5 mM or 1.0 mM cGMP). This was to repress expression of the fbp1-ura4 reporter prior to exposure of cells to 5FOA medium. Cells were grown at 30° C. to exponential phase (approximately 10^7 cells/ml). Cells were collected by centrifugation and resuspended in 5FOA medium, and 25 μl were transferred to 384-well microtiter dishes (untreated, with flat clear bottoms) that had been pre-filled with 25 μl 5FOA medium and pre-pinned with 100 nl of compounds (stock solutions were generally 10 mM). Starting cell concentrations ranged from 0.5×10^5 to 4×10^5 cells/ml depending on the screening strain. […] Other positive control dishes contained 5 mM cAMP in the 5FOA medium for PDEs that lack appropriate control compounds. Cultures were grown for 48 hours at 30° C., sealed in an airtight container with moist paper towels to prevent evaporation. Optical densities (OD600) of cultures were measured using a microplate reader. Bioinformatic analysis of the results to determine composite Z scores was performed as previously described (1, 3).
Target sequence in this assay (Q9NP56 whole entry, species assumed, the tested form may be a part): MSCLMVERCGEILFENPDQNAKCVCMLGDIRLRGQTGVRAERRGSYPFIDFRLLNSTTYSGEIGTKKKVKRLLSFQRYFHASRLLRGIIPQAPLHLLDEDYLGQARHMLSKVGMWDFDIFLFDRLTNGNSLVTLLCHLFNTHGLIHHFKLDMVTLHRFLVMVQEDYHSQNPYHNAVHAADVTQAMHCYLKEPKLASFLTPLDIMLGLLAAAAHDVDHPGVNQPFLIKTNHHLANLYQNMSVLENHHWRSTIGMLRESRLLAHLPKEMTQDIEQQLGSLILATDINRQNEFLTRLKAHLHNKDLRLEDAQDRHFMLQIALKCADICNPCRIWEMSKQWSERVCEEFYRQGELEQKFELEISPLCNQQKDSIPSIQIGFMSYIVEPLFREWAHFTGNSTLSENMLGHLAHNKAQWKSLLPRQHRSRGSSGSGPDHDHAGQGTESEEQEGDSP

For another test, the target named is PDE7A (Homo sapiens, UniProt Q13946). Put plainly: 5FOA growth assay in fission yeast strain expressing PDE7A. The arrangement: targets used in the assays are full-length proteins (as opposed to simply the catalytic domain); expressed in transfected cells; host or cells: Schizosaccharomyces pombe, PDE gene integrated in place of cgs2. The test is classed as cell-based. The note with it: OD600 0.6; read-out: ED50 for 5FOA growth assays, PDE7A. Put shortly:
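Fission yeast carrying an fbp1-ura4 reporter were pregrown to exponential phase at 30 °C in EMM with 0–2.5 mM cAMP (or 0.5/1.0 mM cGMP), then moved into 5FOA medium with 100 nl pinned compound (10 mM stocks). Growth was read as OD600 after 48 h at 30 °C and scored as composite Z scores.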

T3 sequence (P36599 whole entry): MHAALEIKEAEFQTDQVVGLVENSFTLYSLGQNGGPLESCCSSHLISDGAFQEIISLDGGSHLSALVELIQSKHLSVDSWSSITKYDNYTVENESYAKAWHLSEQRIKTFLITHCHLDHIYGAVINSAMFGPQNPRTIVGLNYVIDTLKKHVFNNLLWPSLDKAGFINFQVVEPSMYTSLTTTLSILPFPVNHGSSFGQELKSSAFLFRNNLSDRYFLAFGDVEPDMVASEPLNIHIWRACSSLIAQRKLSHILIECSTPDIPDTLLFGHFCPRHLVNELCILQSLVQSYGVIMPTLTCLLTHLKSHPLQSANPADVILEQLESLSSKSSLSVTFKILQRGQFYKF
Chain of PDE7A (Q13946 whole entry, the tested form may be a part): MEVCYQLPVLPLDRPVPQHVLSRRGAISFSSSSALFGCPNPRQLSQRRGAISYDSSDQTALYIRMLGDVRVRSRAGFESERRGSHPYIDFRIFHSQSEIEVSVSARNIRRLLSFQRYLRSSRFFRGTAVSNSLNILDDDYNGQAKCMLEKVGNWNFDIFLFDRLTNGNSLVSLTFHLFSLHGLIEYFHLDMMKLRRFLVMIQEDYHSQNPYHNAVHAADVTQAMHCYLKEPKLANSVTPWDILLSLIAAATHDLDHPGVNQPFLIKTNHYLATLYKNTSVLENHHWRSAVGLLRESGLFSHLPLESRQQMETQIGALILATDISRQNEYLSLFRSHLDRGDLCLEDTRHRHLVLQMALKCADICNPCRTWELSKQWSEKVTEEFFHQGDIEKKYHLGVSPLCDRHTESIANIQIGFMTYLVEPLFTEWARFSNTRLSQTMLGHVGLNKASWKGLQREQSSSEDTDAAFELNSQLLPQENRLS

As for `CCCCCC[C@@H]([C@@H](C)O)n1cnc2c(N)ncnc21` (racemic) [EHNA], the “inhibition of PDE2A judged by cAMP levels” value on PDE2A [1] is listed as “partial inhibition”. The results for the β-galactosidase activity on PDE2A [2] (5 μM EHNA), at PDE2A [2] (20 μM EHNA) and on PDE2A [2] (200 μM EHNA) were 473 ± 19, 197 ± 51 and 45 ± 3, respectively.

In general, IC50 refers to the concentration at which inhibition is half-maximal. Turning to `COc1ccc(C2CNC(=O)C2)cc1OC1CCCC1` (stereo not drawn) [Rolipram, reference compound], in [3], the “hit in high throughput screens (promotes 5FOA^R growth), in words” value was “only affected the PDE4A- and PDE4B-expressing strains”. For the same molecule, on PDE8A [4], the “cAMP levels in PDE8A strain” value is reported as “completely insensitive”. Moreover, the β-galactosidase activity on Cgs2 (50 μM Rolipram, specific activity per milligram of soluble protein, average ± SD) is reported as 1807 ± 446; on Cgs2 (100 μM Rolipram), 1784 ± 429; on PDE8A [5] (50 μM Rolipram), 253 ± 46; on PDE8A [5] (100 μM Rolipram) it was 237 ± 67; in the test with Cgs2-2 (50 μM Rolipram), 19 ± 9; in the test on Cgs2-2 (100 μM Rolipram), 20 ± 11. For the same molecule, the TNF with U937 cells (3 HOURS) was 3497 pg/mL; with U937 cells (20 HOURS), 9362 pg/mL. The “TNF alpha (EtoH = 100.0)” value in the test on U937 cells (3 HOURS) is recorded as 86.2; in the test with U937 cells (20 HOURS), 86.3. In addition, the “TNF, % EtOH cntrl” value in the test on U937 cells (3 HOURS) worked out at 72.4%; in the test with U937 cells (20 HOURS) it was 68.4%. In addition, the IC50 at PDE7B [6] was more than 2 µM. Besides, the EC50 at PDE7B [7] and at PDE7A was more than 200 µM in each case.
